Data from patent US10582709B2, “Butyrolactones as herbicides” (FMC Corporation, priority 2015, dated 2020).

Tests used:
Format in all cases: in vivo
[1] = tested on: velvetleaf (Abutilon theophrasti); experiment: Test A preemergence, velvetleaf; conditions: visual rating after approx. 10 d, 0 to 100 scale, 0 no effect, 100 complete control
Description: (§1) Seeds of plant species selected from barnyardgrass (Echinochloa crus-galli), crabgrass (large crabgrass, Digitaria sanguinalis), kochia (Kochia scoparia), ragweed (common ragweed, Ambrosia elatior), morningglory (Ipomoea spp.), velvetleaf (Abutilon theophrasti), ryegrass, Italian (Italian ryegrass, Lolium multiflorum), foxtail, giant (giant foxtail, Setaria faberii), wheat (Triticum aestivum), corn (Zea mays), and pigweed (Amaranthus retroflexus), were planted into a blend of loam soil and sand and treated preemergence with a directed soil spray using test chemicals formulated in a non-phytotoxic solvent mixture which included a surfactant. At the same time, plants selected from these crop and weed species and also blackgrass (Alopecurus myosuroides), and galium (catchweed bedstraw, Galium aparine), were planted in pots containing the same blend of loam soil and sand and treated with postemergence applications of test chemicals formulated in the same manner. Plants ranged in height from 2 to 10 cm and were in the one- to two-leaf stage for the postemergence treatment. Treated plants and untreated controls were maintained in a greenhouse for approximately 10 d, after which time all treated plants were compared to untreated controls and visually evaluated for injury. Plant response ratings, summarized in Table A, are based on a 0 to 100 scale where 0 is no effect and 100 is complete control. A dash (-) response means no test result.

[2] = tested on: ducksalad (Heteranthera limosa); experiment: Test B flooded paddy test, ducksalad; conditions: 250 g ai/ha; applied to paddy water at 2-leaf stage; 13 to 15 d; scale 0 no effect to 100 complete control
Method in brief: (§2)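 Plants at the 2-leaf stage were flooded to 3 cm above soil, and test compounds were applied directly into the paddy water, which was held at that depth throughout. After 13 to 15 d in a greenhouse, injury was rated visually against untreated controls on a 0–100 scale (0 no effect, 100 complete control).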

[3] = tested on: barnyardgrass (Echinochloa crus-galli); experiment: Test A postemergence, barnyardgrass; conditions: visual rating after approx. 10 d, 0 to 100 scale, 0 no effect, 100 complete control
Method in brief: (§3)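 Visual injury ratings on a 0–100 scale (100 = complete control) made after about 10 d in the greenhouse, relative to untreated plants. Treatment was either a directed soil spray after sowing in loam–sand (preemergence) or foliar on one- to two-leaf plants 2–10 cm tall (postemergence), using surfactant-containing solvent formulations.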

[4] = tested on: barnyardgrass (Echinochloa crus-galli); experiment: Test B flooded paddy test, barnyardgrass; conditions: 250 g ai/ha; applied to paddy water at 2-leaf stage; 13 to 15 d; scale 0 no effect to 100 complete control
Method in brief: as §2

[5] = tested on: wheat (Triticum aestivum); experiment: Test A preemergence, wheat; conditions: visual rating after approx. 10 d, 0 to 100 scale, 0 no effect, 100 complete control
Description: as §1

[6] = tested on: wheat (Triticum aestivum); experiment: Test A postemergence, wheat; conditions: visual rating after approx. 10 d, 0 to 100 scale, 0 no effect, 100 complete control
Method in brief: as §3

[7] = tested on: velvetleaf (Abutilon theophrasti); experiment: Test A postemergence, velvetleaf; conditions: visual rating after approx. 10 d, 0 to 100 scale, 0 no effect, 100 complete control
Description: as §1

[8] = tested on: crabgrass (large crabgrass, Digitaria sanguinalis); experiment: Test A preemergence, crabgrass; conditions: visual rating after approx. 10 d, 0 to 100 scale, 0 no effect, 100 complete control
Description: as §1

[9] = tested on: morningglory (Ipomoea spp.); experiment: Test A postemergence, morningglory; conditions: visual rating after approx. 10 d, 0 to 100 scale, 0 no effect, 100 complete control
Description: as §1

rice (Oryza sativa) = experiment: Test B flooded paddy test, rice; conditions: 250 g ai/ha; applied to paddy water at 2-leaf stage; 13 to 15 d; scale 0 no effect to 100 complete control
Method in brief: as §2

[10] = tested on: foxtail, giant (giant foxtail, Setaria faberii); experiment: Test A preemergence, giant foxtail; conditions: visual rating after approx. 10 d, 0 to 100 scale, 0 no effect, 100 complete control
Method in brief: as §3

[11] = tested on: foxtail, giant (giant foxtail, Setaria faberii); experiment: Test A postemergence, giant foxtail; conditions: visual rating after approx. 10 d, 0 to 100 scale, 0 no effect, 100 complete control
Method in brief: as §3

corn (Zea mays) [12] = experiment: Test A preemergence, corn; conditions: visual rating after approx. 10 d, 0 to 100 scale, 0 no effect, 100 complete control
Description: as §1

[13] = tested on: crabgrass (large crabgrass, Digitaria sanguinalis); experiment: Test A postemergence, crabgrass; conditions: visual rating after approx. 10 d, 0 to 100 scale, 0 no effect, 100 complete control
Description: as §1

[14] = tested on: barnyardgrass (Echinochloa crus-galli); experiment: Test A preemergence, barnyardgrass; conditions: visual rating after approx. 10 d, 0 to 100 scale, 0 no effect, 100 complete control
Method in brief: as §3

[15] = tested on: pigweed (Amaranthus retroflexus); experiment: Test A preemergence, pigweed; conditions: visual rating after approx. 10 d, 0 to 100 scale, 0 no effect, 100 complete control
Method in brief: as §3

[16] = tested on: pigweed (Amaranthus retroflexus); experiment: Test A postemergence, pigweed; conditions: visual rating after approx. 10 d, 0 to 100 scale, 0 no effect, 100 complete control
Method in brief: as §3

[17] = tested on: sedge, umbrella (small-flower umbrella sedge, Cyperus difformis); experiment: Test B flooded paddy test, umbrella sedge; conditions: 250 g ai/ha; applied to paddy water at 2-leaf stage; 13 to 15 d; scale 0 no effect to 100 complete control
Method in brief: as §2

[18] = tested on: morningglory (Ipomoea spp.); experiment: Test A preemergence, morningglory; conditions: visual rating after approx. 10 d, 0 to 100 scale, 0 no effect, 100 complete control
Description: as §1

corn (Zea mays) [19] = experiment: Test A postemergence, corn; conditions: 1000 g ai/ha, visual rating after approx. 10 d, 0 to 100 scale, 0 no effect, 100 complete control
Method in brief: as §3

`O=C(Nc1ccccc1Cl)C1C(=O)OCC1c1ccc(F)c(F)c1` (racemic) [Compound 3] was tested, and the “Plant response rating, Velvetleaf” value ([1]; 125 g ai/ha) was 0, the “Plant response rating, Velvetleaf” value ([1]; 500 g ai/ha) was 0 and the “Plant response rating, Flood, Ducksalad” value [2] was 0. The “Plant response rating, Barnyardgrass” value ([3]; 125 g ai/ha) was 0, the “Plant response rating, Barnyardgrass” value ([3]; 500 g ai/ha) was 0 and the “Plant response rating, Flood, Barnyardgrass” value [4] was 0. For the same molecule, the “Plant response rating, Wheat” value ([5]; 125 g ai/ha) was 0, the “Plant response rating, Wheat” value ([5]; 500 g ai/ha) was 0 and the “Plant response rating, Wheat” value ([6]; 125 g ai/ha) was 0. The “Plant response rating, Wheat” value ([6]; 500 g ai/ha) was 0, the “Plant response rating, Velvetleaf” value ([7]; 125 g ai/ha) was 0 and the “Plant response rating, Velvetleaf” value ([7]; 500 g ai/ha) was 0. For the same molecule, the “Plant response rating, Crabgrass” value ([8]; 125 g ai/ha) was 40, the “Plant response rating, Crabgrass” value ([8]; 500 g ai/ha) was 50 and the “Plant response rating, Morningglory” value ([9]; 125 g ai/ha) was 0. For the same molecule, the “Plant response rating, Morningglory” value ([9]; 500 g ai/ha) was 0, the “Plant response rating, Flood, Rice” value (rice (Oryza sativa)) was 0 and the “Plant response rating, Foxtail, Giant” value ([10]; 125 g ai/ha) was 70. For the same molecule, the “Plant response rating, Foxtail, Giant” value ([10]; 500 g ai/ha) was 80, the “Plant response rating, Foxtail, Giant” value ([11]; 125 g ai/ha) was 50 and the “Plant response rating, Foxtail, Giant” value ([11]; 500 g ai/ha) was 60. For the same molecule, the “Plant response rating, Corn” value (corn (Zea mays) [12]; 125 g ai/ha) was 0, the “Plant response rating, Corn” value (corn (Zea mays) [12]; 500 g ai/ha) was 0 and the “Plant response rating, Crabgrass” value ([13]; 125 g ai/ha) was 60. For the same molecule, the “Plant response rating, Crabgrass” value ([13]; 500 g ai/ha) was 70, the “Plant response rating, Barnyardgrass” value ([14]; 125 g ai/ha) was 0 and the “Plant response rating, Barnyardgrass” value ([14]; 500 g ai/ha) was 30. The “Plant response rating, Pigweed” value ([15]; 125 g ai/ha) was 0, the “Plant response rating, Pigweed” value ([15]; 500 g ai/ha) was 0 and the “Plant response rating, Pigweed” value ([16]; 125 g ai/ha) was 0. For the same molecule, the “Plant response rating, Pigweed” value ([16]; 500 g ai/ha) was 0, the “Plant response rating, Flood, Sedge, Umbrella” value [17] was 0 and the “Plant response rating, Morningglory” value ([18]; 125 g ai/ha) was 0. The “Plant response rating, Morningglory” value ([18]; 500 g ai/ha) was 0.
For `O=C(Nc1ccccc1F)C1C(=O)OCC1c1ccc(F)c(F)c1` (racemic) [Compound 4], the “Plant response rating, Velvetleaf” value ([1]; 1000 g ai/ha) was 0, the “Plant response rating, Flood, Ducksalad” value [2] was 0 and the “Plant response rating, Barnyardgrass” value ([3]; 1000 g ai/ha) was 70. The “Plant response rating, Flood, Barnyardgrass” value [4] was 20, the “Plant response rating, Wheat” value ([5]; 1000 g ai/ha) was 0 and the “Plant response rating, Wheat” value ([6]; 1000 g ai/ha) was 0. The “Plant response rating, Velvetleaf” value ([7]; 1000 g ai/ha) was 0, the “Plant response rating, Crabgrass” value ([8]; 1000 g ai/ha) was 90 and the “Plant response rating, Morningglory” value ([9]; 1000 g ai/ha) was 0. The “Plant response rating, Flood, Rice” value (rice (Oryza sativa)) was 15, the “Plant response rating, Foxtail, Giant” value ([10]; 1000 g ai/ha) was 80 and the “Plant response rating, Foxtail, Giant” value ([11]; 1000 g ai/ha) was 70. The “Plant response rating, Corn” value (corn (Zea mays) [12]; 1000 g ai/ha) was 0, the “Plant response rating, Crabgrass” value ([13]; 1000 g ai/ha) was 90 and the “Plant response rating, Barnyardgrass” value ([14]; 1000 g ai/ha) was 70. The “Plant response rating, Pigweed” value ([15]; 1000 g ai/ha) was 0, the “Plant response rating, Pigweed” value ([16]; 1000 g ai/ha) was 0 and the “Plant response rating, Flood, Sedge, Umbrella” value [17] was 0. For the same molecule, the “Plant response rating, Morningglory” value ([18]; 1000 g ai/ha) was 0.
`O=C(Nc1ccccc1C(F)(F)F)C1C(=O)OCC1c1ccc(F)cc1` (stereo not shown) [Compound 6] was tested, and the “Plant response rating, Velvetleaf” value ([1]; 1000 g ai/ha) was 0, the “Plant response rating, Flood, Ducksalad” value [2] was 0 and the “Plant response rating, Barnyardgrass” value ([3]; 1000 g ai/ha) was 20. For the same molecule, the “Plant response rating, Flood, Barnyardgrass” value [4] was 0, the “Plant response rating, Wheat” value ([5]; 1000 g ai/ha) was 0 and the “Plant response rating, Wheat” value ([6]; 1000 g ai/ha) was 0. The “Plant response rating, Velvetleaf” value ([7]; 1000 g ai/ha) was 0, the “Plant response rating, Crabgrass” value ([8]; 1000 g ai/ha) was 80 and the “Plant response rating, Morningglory” value ([9]; 1000 g ai/ha) was 0. The “Plant response rating, Flood, Rice” value (rice (Oryza sativa)) was 0, the “Plant response rating, Foxtail, Giant” value ([10]; 1000 g ai/ha) was 80 and the “Plant response rating, Foxtail, Giant” value ([11]; 1000 g ai/ha) was 80. The “Plant response rating, Corn” value (corn (Zea mays) [12]; 1000 g ai/ha) was 0, the “Plant response rating, Crabgrass” value ([13]; 1000 g ai/ha) was 80 and the “Plant response rating, Barnyardgrass” value ([14]; 1000 g ai/ha) was 20. For the same molecule, the “Plant response rating, Corn” value (corn (Zea mays) [19]) was 0, the “Plant response rating, Pigweed” value ([15]; 1000 g ai/ha) was 0 and the “Plant response rating, Pigweed” value ([16]; 1000 g ai/ha) was 0. The “Plant response rating, Flood, Sedge, Umbrella” value [17] was 0 and the “Plant response rating, Morningglory” value ([18]; 1000 g ai/ha) was 0.
